Values joined by “and” are separate entries in the source; they are usually repeats but may differ in a detail not shown here. Equal values may be shown once.
Biological target: T1, Spleen Tyrosine Kinase (SYK) aa 360-635 (Homo sapiens, UniProt P43405)
T1 construct: truncated construct of Spleen Tyrosine Kinase aa 360-635; made in house
Assay: Determination of IC50 of Spleen Tyrosine Kinase (SYK) inhibition, 33P kinase assay
Type: biochemical
Settings: recombinant human SYK360-635, 20 μM ATP; read-out: IC50 (μM) SYK Assay
Experimental: Determination of IC50 of Spleen Tyrosine Kinase (SYK) Inhibition
The SYK kinase assay is a standard kinase assay adapted to a 96 well plate format. This assay is performed in 96-well format for IC50 determination with 8 samples which represented 10 half log dilutions and a 40 μL reaction volume. The assay measures the incorporation of radiolabeled ^33P γATP into an N-terminally biotinylated peptide substrate, derived from naturally occurring phosphoacceptor consensus sequence (Biotin-11aa DY*E). Phosphorylated products were detected upon termination of reactions with EDTA and the addition of Streptavidin coated beads. • Assay plates: 96-well MultiScreen 0.65 um filter plates (Millipore Cat. No.: MADVNOB10) • Streptavidin coated beads: Streptavidin Sepharose TM, suspension 5.0 mL, in 50 mM EDTA/PBS diluted (1:100), (Amersham, Cat. No.: 17-5113-01) • Compounds: 10 mM in 100% dimethylsulfoxide (DMSO), final conc.: compound 0.003-100 uM in 10% DMSO • Enzyme: SYK RPA purified, truncated construct of Spleen Tyrosine Kinase aa 360-635, stock solution 1 mg/mL, MW: 31.2 KDa, final conc.:0.0005 μM. • Peptide 1: biotinylated peptide is derived from a naturally occurring phosphor-acceptor consensus sequence (Biotin-[…]), special order from QCB, stock solution 20 mM, final conc.: 5.0 μM. • ATP: Adenosine-5′-triphosphate 20 mM, (ROCHE Cat. No.:93202720), final concentration: 20 μM • Buffer: HEPES: 2-Hydroxyethyl piperazine-2-ethanesulfonic acid (Sigma, Cat. No.: H-3375) final concentration: 50 mM HEPES pH7.5 • BSA: Bovine Serum Albumin Fraction V, fatty acid free (Roche Diagnostics GmbH, Cat. No. 9100221) diluted to a final concentration of 0.1% • EDTA: EDTA stock solution 500 mM, (GIBCO, Cat. No.: 15575-038) final concentration: 0.1 mM • DTT: 1,4-Dithiothreitol (Roche Diagnostics GmbH, Cat. No.: 197777), final conc.: 1 mM • MgCl2×6H2O: MERCK, Cat. No.: 105833.1000, final concentration: 10 mM • Assay Dilution Buffer (ADB): 50 mM HEPES, 0.1 mM EGTA, 0.1 mM Na Vanadate, 0.1 mM β-glycerophosphate, 10 mM MgCl2, 1 mM DTT, 0,1% BSA, pH 7.5 • Bead wash buffer: 10 g/L PBS (Phosphate buffered saline) with 2M NaCl+1% phosphoric acid Experimental Method:
In 40 μL volume, 26 μL of ADB diluted, purified recombinant human SYK360-635 [0.5 nM] was mixed with 4 μL of 10× concentrations of the test compounds, [usually 100 μM-0.003 μM] in [10%] DMSO and the mixture was incubated for 10 min at RT.
The kinase reaction was initiated by the addition of 10 μL 4× substrate cocktail containing the DYE peptide substrate [0 or 5 μM], ATP [20 μM] and […] [2 μCi/rxn]. After incubation at 30° C. for 15 min, the reaction was terminated by the transfer of 25 μL of the reaction sample to a 96 well 0.65 um Millipore MADVNOB membrane/plate containing 200 μL 5 mM EDTA and 20% Streptavidine coated beads in PBS.
The unbound radionucleotides were washed under vacuum with 3×250 μL 2M NaCl; 2×250 μL 2M NaCl+1% phosphoric acid; 1×250 μL H2O. After the last wash membrane/plates were transferred to an adaptor plate, heat dried for 15 min at 60° C., and 50 μL scintillation cocktail was added to each well and 4 h later the amount of radioactivity was counted in a top counter.
The IC50 was calculated using a non-linear curve fit with XLfit software (ID Business Solution Ltd., Guilford, Surrey, UK). […] Representative results are in Table 1.

| IC50 | SMILES |
| --- | --- |
| 0.565 µM and 2.31 µM and 0.526 µM | Cc1cc(Nc2nn(C(C)C)c(=O)c3cc(N4CCOCC4)ccc23)n[nH]1 [Example F-1, 2-Isopropyl-4-(5-methyl-1H-pyrazol-3-ylamino)-7-morpholino-2H-phthalazin-1-one] |
| 0.37 µM and 0.7 µM and 0.536 µM | Cc1cc(Nc2nn(C(C)C)c(=O)c3cc(N4CCN(C)CC4)ccc23)[nH]n1 [Example F-5, 2-Isopropyl-7-(4-methyl-piperazin-1-yl)-4-(5-methyl-2H-pyrazol-3-ylamino)-2H-phthalazin-1-one] |
| 1.86 µM | Cc1cc(Nc2nn(C(C)C)c(=O)c3cc(OCCN(C)C)ccc23)n[nH]1 [Example ZD-5, 7-(2-Dimethylamino-ethoxy)-2-isopropyl-4-(5-methyl-1H-pyrazol-3-ylamino)-2H-phthalazin-1-one] |

Reference: patent US7501410B2, “Methods of inhibiting BTK and SYK protein kinases” (Roche Palo Alto LLC, priority 2006, dated 2009)
